Experimental data as given in publication PMC10988762, “Inhibition of malaria and babesiosis parasites by putative red blood cell targeting small molecules” (Frontiers in Cellular and Infection Microbiology, 2024).
pIC50: −log10 of the molar value. Where a name gives a salt, the structure may show the parent alone. Read-outs that look alike come from different tables or passages of the source.

Legend:
P. falciparum strain 3D7 = test: Inhibitor susceptibility dose-response assay (SYBR-Green I), P. falciparum 3D7; assay type: cell-based, Plasmodium falciparum; conditions: Plasmodium falciparum, read-out: IC50 (S.D.), P. falciparum-3D7
Experimental: (§1) The P. falciparum strains 3D7 and Dd2 were obtained from the Walter and Eliza Hall Institute (Melbourne, Australia) and the Malaria Research and Reference Reagent Resource, respectively. […] B. divergens parasites were maintained and assayed in mixed stages without synchronization.
(§2) Ring-stage P. falciparum (1%-parasitemia starting, 1%-hematocrit) and asynchronous B.divergens (0.5%-parasitemia starting, 3%-hematocrit) were incubated with plated compounds for 72h, and ring-stage P. knowlesi (1%-parasitemia starting, 1%-hematocrit) for 48h, before lysis and staining with dye. To quantify the species-specificity of the inhibitors, we divided the range of IC50s across the 4 test lines by the average IC50 across the same lines: inhibitors with increased scores show species-specific activity and reduced scores indicate broad-spectrum, pan-species activity.

P. falciparum strain Dd2 = test: Inhibitor susceptibility dose-response assay (SYBR-Green I), P. falciparum Dd2; assay type: cell-based, Plasmodium falciparum; conditions: Plasmodium falciparum, read-out: IC50 (S.D.), P. falciparum-Dd2
Experimental: as §1, §2

[1] = system: BdC9 line of B. divergens; test: Inhibitor susceptibility dose-response assay (SYBR-Green I), B. divergens; assay type: cell-based, Babesia divergens; conditions: Babesia divergens, read-out: IC50 (S.D.), B. divergens
Experimental: as §1, §2

in vitro = conditions: human
uninfected RBCs [2] = test: Cellular phosphatidylserine exposure assay (annexin V flow cytometry);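 for all read-outs here: flow cytometry recording 10,000 events per condition, gated on single cells, with the two experiments using blood from separate donors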; conditions: for PS exposure on RBCs, in words: 5x P. falciparum 3D7-IC50, 24, 48, 72h
P. knowlesi YH1 strain = test: microbe, parasite or virus in culture; assay type: cell-based, Plasmodium knowlesi; conditions: for pIC50: Plasmodium knowlesi, 48 h, read-out: IC50 (S.D.), P. knowlesi
Experimental: as §1, §2

RBC = conditions: read-out: Micromolar IC50 (RBC), PS exposure, cited from earlier work
P. falciparum (3D7) = test: Assay for inhibition of parasite proliferation via RBC-targeting (transient exposure of RBCs, wash, then infection); assay type: cell-based, Plasmodium falciparum; conditions: for antimalarial activity retained after transient exposure of RBCs, relative to continuous exposure to inhibitor: 5x P. falciparum 3D7-IC50, RBC preincubation 4-5 hours then washed, 100% = inhibition with continuous exposure, P<0.01; for inhibitory activity following transient exposure of RBCs, in words: transient vs continued exposure, dose-response format where stated, n=3
Experimental: All plates were frozen for storage before assay. For assay, duplicate plates were preincubated with donor O+ RBCs at 2% hematocrit at 37°C in 50µL for 4-5 hours. Following preincubation, one but not the other plate in each pair was washed 4X in complete RPMI to dilute inhibitor. We transferred RBCs from both washed and unwashed plates to black, clear bottom 96-well plates (Corning Cat. No. 3904) and supplemented these suspensions with MACS-purified P. falciparum (3D7) schizonts for a starting parasitemia of 0.1% - 0.25% at 1% hematocrit. Following 72h incubation in standard culture conditions, samples were processed for SYBR-Green I signal ([Mandt et al., 2019]). […] To identify host-targeting compounds, we compared DMSO-treated to inhibitor-treated samples (Students t-test, paired). We carried out the assay with 1 µM mefloquine (Sigma-Aldrich Cat. No. M2319) as a control for reversible inhibition. All assays were conducted in biological triplicate, with each experiment utilizing different donor RBCs. For select compounds, we carried out this same assay in a dose-response series (n=3 experiments). Following normalization to DMSO-controls, we assessed inhibitor activity following transient exposure of RBCs by Two-Way ANOVA tests for repeated measures (Graphpad Prism v9): high P values indicate support for the null hypothesis that dose-dependent inhibition is not modulated by dilution after exposure, consistent with a direct inhibitory effect of the compounds on RBCs persisting after transient exposure.

P. falciparum 3D7 = test: Co-administration with established antimalarials, IC50 shift; assay type: cell-based, Plasmodium falciparum; conditions: P<0.05
Source text: Our experimental compound set is weighted toward kinase inhibitors, reflecting the high degree of small molecule development in this target space.

uninfected RBCs [3] = conditions: 5x P. falciparum 3D7-IC50; 24, 48, 72h
[4] = 48h, 5x P. falciparum 3D7-IC50, % of RBCs, mean of 2 experiments
[5] = uninfected RBCs (red blood cells), 1% hematocrit
[6] = 24h, 5x P. falciparum 3D7-IC50, % of RBCs, mean of 2 experiments
[7] = 72h, 5x P. falciparum 3D7-IC50, % of RBCs, mean of 2 experiments
[8] = 3D7, 72h, ring-stage, n=3 experiments (or 2 where indicated with *)
[9] = DD2, 72h, ring-stage, n=3 experiments (or 2 where indicated with *)
[10] = 72h, asynchronous, n=3 experiments (or 2 where indicated with *)

| SMILES | pIC50 (P. falciparum strain 3D7; 3D7, 72 h) | pIC50 (P. falciparum strain Dd2; DD2, 72 h) | pIC50 ([1]; 72 h) | Phosphatidylserine exposure (%) 48h (uninfected RBCs [2]; [4]) | pIC50 (P. knowlesi YH1 strain) | hemolysis at 24 h, 5 x P. falciparum 3D7-IC50 (in vitro; [5]) | hemolysis at 48 h, 5 x P. falciparum 3D7-IC50 (in vitro; [5]) | hemolysis at 72 h, 5 x P. falciparum 3D7-IC50 (in vitro; [5]) | Phosphatidylserine exposure (%) 24h (uninfected RBCs [2]; [6]) | Phosphatidylserine exposure (%) 72h (uninfected RBCs [2]; [7]) | also measured |
| --- | --- | --- | --- | --- | --- | --- | --- | --- | --- | --- | --- |
| CC(C)CC(O)(CC(C)C)c1cnn(C(=O)N2CCCC2)n1 [AA74-1] | 6.60 | 6.30 | 5.40 | 2% | – | – | – | – | – | – | hemolysis at 24 h, 5 x P. falciparum 3D7-IC50 (in vitro): -6%; hemolysis at 48 h, 5 x P. falciparum 3D7-IC50 (in vitro): -1%; hemolysis at 72 h, 5 x P. falciparum 3D7-IC50 (in vitro): 2%; Phosphatidylserine exposure (%) 24h (uninfected RBCs [2]): 1%; Phosphatidylserine exposure (%) 72h (uninfected RBCs [2]): 5% |
| COC[C@H]1Cn2cc(-c3nc(Nc4ccnn4C)ncc3C)nc2C(=O)N1Cc1ccc(F)c(F)c1 [AZD0364] | 4.80 | 4.89 | 4.80 | – | – | – | – | – | – | – | – |
| O=C(O)C1=CC(=C(c2ccc(O)c(C(=O)O)c2)c2ccc(O)c(C(=O)O)c2)C=CC1=O [Aurintricarboxylic acid (ATA), Aurintricarboxylic acid] | 4.43 | 4.36 | 4.54 | – | – | – | – | – | – | – | – |
| Nc1ccc(C2CCN(C(=O)c3ccc(Oc4ccc(C(F)(F)F)cc4)cc3)CC2)nn1 [BI 749327] | 4.60 | 4.66 | 4.52 | – | 4.40 | – | – | – | – | – | – |
| Clc1ccc(C(c2ccc(Cl)cc2)n2cc[n+](CC(OCc3ccc(Cl)cc3Cl)c3ccc(Cl)cc3Cl)c2)cc1 (stereo not drawn) [Calmidazolium] | 6.30 | 6.22 | 5.92 | 4% | 6.22 | -6% | 7% | 14% | 3% | 9% | – |
| CCCCCCCCc1ccc(CCC(N)(CO)CO)cc1 [FTY720] | 5.41 | 5.46 | 4.85 | 21% | 5.66 | 4% | 23% | 25% | 4% | 34% | pIC50 (RBC; RBC assay: PS exposure ref PMID 21063113): 5.00 to 5.30 |
| O=C1Nc2ccc(I)cc2/C1=C/c1cc(Br)c(O)c(Br)c1 [GW5074] | 4.72 | 4.89 | 4.52 | – | 5.00 | – | – | – | – | – | – |
| Oc1ccc2ccccc2c1SSc1c(O)ccc2ccccc12 [IPA-3] | 5.30 | 5.30 | 4.82 | 35% | 5.40 | -14% | 11% | 30% | 29% | 35% | antimalarial activity retained after transient exposure of RBCs, relative to continuous exposure to inhibitor (P. falciparum (3D7)): ≥ 80%; inhibitory activity following transient exposure of RBCs, in words (P. falciparum (3D7)): statistically indistinguishable from inhibition with continued exposure; pIC50 (RBC; RBC assay: PS exposure ref PMID 21214270): > 5.30 |
| Cc1ccc(NC(=O)c2ccc(CN3CCN(C)CC3)cc2)cc1Nc1nccc(-c2cccnc2)n1 [Imatinib mesylate] | – | – | – | 2% | – | -2% | 2% | 7% | 2% | – | Phosphatidylserine exposure (%) 72h (uninfected RBCs [2]): 4% |
| Cn1nccc1Nc1nccc(-c2cc3c(s2)C(C)(C)N(CCN2CCOCC2)C3=O)n1 [LY3214996] | 5.28 | 5.24 | 5.00 | 2% | 5.22 | -1% | 13% | 16% | 2% | 5% | – |
| CCn1c2ccccc2c2cc(-n3nncc3-c3ccccc3)ccc21 [MBQ-167] | 4.48 | 4.64 | 4.40 | – | 4.42 | – | – | – | – | – | – |
| CN(C)C[C@@H]1CCn2cc(c3ccccc32)C2=C(C(=O)NC2=O)c2cn(c3ccccc23)CCO1 [Ruboxistaurin] | – | – | – | 2% | 5.52 | -1% | 6% | 14% | 2% | 6% | pIC50 (P. falciparum strain 3D7; [8]): 6.05; pIC50 (P. falciparum strain Dd2; [9]): 6.05; pIC50 [1, 10]: 5.55; reduction in the IC50 of chloroquine in combination with fixed, sublethal dose of test compound (P. falciparum 3D7): ≤ 2 fold; PS exposure on RBCs, in words (uninfected RBCs [2]): similarly low levels |
| CNC(=O)c1cc(Oc2ccc(NC(=O)Nc3ccc(Cl)c(C(F)(F)F)c3)cc2)ccn1 [Sorafenib] | – | – | – | – | 5.30 | – | – | – | – | – | pIC50 (P. falciparum strain 3D7; [8]): 5.31; pIC50 (P. falciparum strain Dd2; [9]): 5.40; pIC50 [1, 10]: 5.70; pIC50 (RBC; RBC assay: PS exposure ref PMID 22907570): < 5.00; hemolysis at 24 h, 5 x P. falciparum 3D7-IC50 (in vitro): -6%; hemolysis at 48 h, 5 x P. falciparum 3D7-IC50 (in vitro): 16%; hemolysis at 72 h, 5 x P. falciparum 3D7-IC50 (in vitro): 15%; Phosphatidylserine exposure (%) 24h (uninfected RBCs [2]): 7%; Phosphatidylserine exposure (%) 48h (uninfected RBCs [2]): 12%; Phosphatidylserine exposure (%) 72h (uninfected RBCs [2]): 21% |
| Nc1nc(N)c2nc(-c3cccc(O)c3)c(-c3cccc(O)c3)nc2n1 [TG-100-115] | – | – | – | 3% | 6.10 | -1% | 12% | 18% | 2% | 5% | pIC50 (P. falciparum strain 3D7; [8]): 5.05; pIC50 (P. falciparum strain Dd2; [9]): 5.15; antiparasitic activity in vitro, in words, P. knowlesi (P. knowlesi YH1 strain; P. knowlesi): submicromolar activity; activity against P. knowlesi stronger than against the other parasite species (P. knowlesi YH1 strain; P. knowlesi vs other parasite species): ~ 10 x; pIC50 [1, 10]: 4.89; PS exposure on RBCs, in words (uninfected RBCs [2]): similarly low levels |
| O=C(O)/C=C/c1cc(Br)c(Br)c(Br)c1Br [Tetrabromocinnamic acid] | < 4.00 | < 4.07 | < 4.10 | – | < 4.10 | – | – | – | – | – | – |
| COc1ccc2c(c1)CCC1C2CCC2(C)C(NCCCCCCN3C(=O)C=CC3=O)CCC12 (stereo not drawn) [U-73122] | – | – | – | 9% | 5.36 | -3% | 16% | 13% | 5% | 11% | pIC50 (P. falciparum strain 3D7; [8]): 5.40; pIC50 (P. falciparum strain Dd2; [9]): 5.30; pIC50 [1, 10]: 4.70; antimalarial activity retained after transient exposure of RBCs, relative to continuous exposure to inhibitor (P. falciparum (3D7)): ≥ 80%; inhibitory activity following transient exposure of RBCs, in words (P. falciparum (3D7)): statistically indistinguishable from inhibition with continued exposure; hemolysis of RBCs, in words (uninfected RBCs [3]): lower levels; PS exposure on RBCs, in words (uninfected RBCs [2]): lower levels |
| OC(c1cc(C(F)(F)F)nc2c(C(F)(F)F)cccc12)C1CCCCN1 (stereo not drawn) [mefloquine] | – | – | – | – | – | – | – | – | – | – | inhibitory activity following transient exposure of RBCs, in words (P. falciparum (3D7)): does not retain antimalarial activity at any dose |
